Source: US6087355A, “Cephalosporin antibiotics” (Microcide Pharmaceuticals, Inc., priority 1996, dated 2000)
Converted amounts (≈) assume the structure as drawn.

Experiments:
[1] = test system: E. coli ATCC 25992; assay: In vitro MIC, agar dilution; format: cell-based; settings: Escherichia coli, ATCC25992, read-out: minimum inhibitory concentration (MIC)
Method in brief: (§1)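 Growth inhibition was scored after 16-20 h at 35-36 °C on Mueller-Hinton agar carrying serial two-fold drug concentrations (128 to ≤0.25 μg/mL). Inocula of ~10^4 cfu per spot came from 4-6 h broth cultures.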

[2] = test system: E. faecalis ATCC 29212; assay: In vitro MIC, agar dilution; format: cell-based; settings: Enterococcus faecalis, ATCC29212, read-out: minimum inhibitory concentration (MIC)
Method in brief: as §1

[3] = test system: E. faecalis VanB(Van^R); assay: In vitro MIC, agar dilution; format: cell-based; settings: Enterococcus faecalis, read-out: minimum inhibitory concentration (MIC)
Method in brief: as §1

[4] = test system: E. faecium A491(Amp^R); assay: In vitro MIC, agar dilution; format: cell-based; settings: Enterococcus faecium, read-out: minimum inhibitory concentration (MIC)
Method in brief: as §1

[5] = test system: E. faecium ATCC 35667; assay: In vitro MIC, agar dilution; format: cell-based; settings: Enterococcus faecium, ATCC35667, read-out: minimum inhibitory concentration (MIC)
Method in brief: as §1

[6] = test system: E. faecium VanA(Van^R); assay: In vitro MIC, agar dilution; format: cell-based; settings: Enterococcus faecium, read-out: minimum inhibitory concentration (MIC)
Method in brief: as §1

[7] = test system: S. aureus 76(Meth^R)(lac^+); assay: In vitro MIC, agar dilution; format: cell-based; settings: Staphylococcus aureus, read-out: minimum inhibitory concentration (MIC)
Method in brief: as §1

[8] = test system: S. aureus ATCC 33593(Meth^R); assay: In vitro MIC, agar dilution; format: cell-based; settings: Staphylococcus aureus, ATCC33593, read-out: minimum inhibitory concentration (MIC)
Method in brief: as §1

[9] = test system: S. aureus PC1(Meth^S)(lac^+); assay: In vitro MIC, agar dilution; format: cell-based; settings: Staphylococcus aureus, read-out: minimum inhibitory concentration (MIC)
Method in brief: as §1

[10] = test system: S. aureus strain ATCC 13709 (methicillin-susceptible); assay: Murine model for lethal bacteremic peritonitis; format: in vivo, female Swiss-Webster mice; settings: Staphylococcus aureus, ATCC13709, SC, 72 h
Method in brief: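 Female Swiss-Webster mice were challenged IP with an LD100 inoculum in 7% hog gastric mucin, then given test drug subcutaneously in twofold increments (0.01–512 mg/kg) as two equal doses at challenge and 2 h later, 10 mice per group. Survival was scored at 72 h; PD50 (total mg/kg) was derived by probit.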

[11] = test system: MRSA strains; settings: in words, reported in background; cited from earlier work

Question: Which results are given for `C[C@@H](O)[C@H]1C(=O)N2C(C(=O)O)=C(SCCN=CN)C[C@H]12` [Imipenem, imipenem, reference compound]?
Answer: MIC [1]: ≤ 0.25 µg/mL; MIC [2]: ≤ 0.25 µg/mL; MIC [3]: 0.5 µg/mL (≈ 1.67 µM); MIC [4]: > 128 µg/mL; MIC [5]: 4 µg/mL (≈ 13.4 µM); MIC [6]: 4 µg/mL (≈ 13.4 µM); MIC [7]: 32 µg/mL (≈ 107 µM); MIC [8]: 32 µg/mL (≈ 107 µM); MIC [9]: ≤ 0.25 µg/mL; responders at 0.039 mg/kg ([10]; Dose 0.039 mg/kg, read-out: Survivors): 30%; responders at 0.078 mg/kg ([10]; Dose 0.078 mg/kg, read-out: Survivors): 60%; responders at 0.156 mg/kg ([10]; Dose 0.156 mg/kg, read-out: Survivors): 100%; responders at 0.3125 mg/kg ([10]; Dose 0.3125 mg/kg, read-out: Survivors): 100%; responders at 0.625 mg/kg ([10]; Dose 0.625 mg/kg, read-out: Survivors): 100%; ED50 ([10]; two equal doses, IP challenge, read-out: ED50): 0.06 mg/kg; activity against MRSA strains [11]: active against a few MRSA strains
